Test results published in patent US10000469B2, “Heat shock protein 70 (hsp-70) receptor ligands” (Duke University, priority 2014, dated 2018).

Legend:
[1] = molecular target: Hsp70i (Homo sapiens, UniProt P0DMV8); test: Partial proteolysis of Hsp70i with trypsin; set-up: Full length Hsp70 (black arrow) and tryptic fragments (blue arrows); His tag (cleaved yes); made in house; settings: 100 uM compound, silver stain
Method: Mass Spectrometry: Tryptic peptides were subjected to matrix-assisted laser desorption-ionization mass spectrometry (MALDI-MS) on an ABSCIEX TOF/TOF 5800 mass spectrometer. Positive mode time of flight was used to identify peptides, and individual peptides were sequenced by MS/MS. All sequence and peptide fingerprint data was searched using the UniProt database.
Partial Proteolysis: Hsp70i (8 μg for SDS-PAGE analysis, 2 μg for mass spec analysis) was incubated with 1 mM ATP, 1 mM ADP, 100 uM HS72, 100 uM HS72+1 mM ATP, or 100 uM HS72+1 mM ADP for 30 min. at room temperature. Hsp70i was digested by adding 0.1 μg of trypsin (Promega, Madison, Wis.) per 2 μg of protein and was quenched by addition of 25% TFA for mass spec analysis or addition of 5×SDS loading buffer and boiling for SDS-PAGE analysis at 2 hours, or 24 hours. Gels were visualized by silver stain.

[2] = tested on: MCF7; test: Cell proliferation, MCF7; type: cell-based; settings: MCF7
Method: Cell Proliferation: Cell proliferation was determined using a Hoechst stain (Sigma, St. Louis, Mo.) to quantify DNA. 5,000 cells of the designated cell line were plated in 96 well plates and treated the next day, designated as time point 0, with the indicated concentration of the specified compound maintained for the duration of the assay. At the indicated time points the media was removed and plated frozen at −80° C. Double distilled H2O was then added and the plates were incubated at 37° C. for 1 hour. After 1 hour the plates were frozen at −80° C. After freezing the plates were thawed and Hoechst stain was diluted 1:1000 in THE buffer (10 mM Tris, 2M NaCl, 1 mM Na2EDTA). The final fluorescence was measured on the Victor X2 plate reader at 355/460 nm, and cell proliferation was determined with the formula: % Cell Proliferation=100×(Sample fluorescence−background fluorescence)/(Control fluorescence−background fluorescence).

[3] = HS-72 PK in plasma, kidney and liver; type: in vivo, mice
Method: HS-72 PK: Wild-type mice were injected IP with HS-72 and sacrificed 5 minutes, 1 hour, 4 hours, 8 hours, and 24 hours post injection. Untreated animals were included as control and called 0 minutes. Each time point consisted of 3 animals. At the indicated time points liver, kidney, and blood was harvested from each animal. Whole blood was centrifuged and only the plasma was retained. Whole liver and kidneys were frozen and stored at −80° C. until processing. Before quantifying HS-72 in the plasma and tissue a standard curve was made using HS-72 and N-(1-methyl-1H-benzo[d]imidazol-2-yl)-1-(pyrazin-2-yl)piperidine-3-carboxamide (“HS-156”), as the internal standard. HS-72 and HS-156 were diluted in water and were further diluted 1:4 in acetonitrile. The resulting solution was then filtered through a 0.2 μm PTFE membrane (VWR, Radnor, Pa.). 15 uL of the solution was run through an Eclipse Plus C18 column (Agilent, Santa Clara, Calif.) and analyzed by an Agilent Ion Trap 6130 LC-MS (Agilent, Santa Clara, Calif.). The total ion chromatogram (TIC), extracted ion chromatogram (EIC), UV chromatogram, and mass spectra (MS) were obtained for each run. The area under the curve from the EIC for HS-72 at 364-366 and for HS-156 at 337 was determined. The EIC area ratio for HS-72 compared to HS-156 was calculated and this ratio was used to plot a standard curve based on the known concentrations of HS-72. The plasma samples were processed in the same manner as in the standard curve and analyzed by LC-MS. The resulting EIC ratios from HS-72 compared to HS-156 were then determined, which was used to calculate the concentration of HS-72 in the diluted sample. The concentration in solution of HS-72 was adjusted for the 1:4 dilution that occurs during sample preparation. The final concentration of HS-72 in plasma was calculated per mL of plasma. The liver and kidney samples were weighed and homogenized in tissue lysis buffer. The resulting homogenate was then processed in the same manner as the plasma samples. The resulting EIC ratios from HS-72 compared to HS-156 were then determined, which was used to calculate the concentration of HS-72 in the diluted sample. The concentration in solution of HS-72 was adjusted for the 1:4 dilution that occurs during sample preparation. Final concentration of HS-72 in the kidney and liver was calculated per gram of tissue using the weight of each tissue measured before sample processing.

[4] = 24 hours, IP 20 mg/Kg, n=3, SEM

Hsp70i, sequence (P0DMV8 whole entry, the tested form may be a part): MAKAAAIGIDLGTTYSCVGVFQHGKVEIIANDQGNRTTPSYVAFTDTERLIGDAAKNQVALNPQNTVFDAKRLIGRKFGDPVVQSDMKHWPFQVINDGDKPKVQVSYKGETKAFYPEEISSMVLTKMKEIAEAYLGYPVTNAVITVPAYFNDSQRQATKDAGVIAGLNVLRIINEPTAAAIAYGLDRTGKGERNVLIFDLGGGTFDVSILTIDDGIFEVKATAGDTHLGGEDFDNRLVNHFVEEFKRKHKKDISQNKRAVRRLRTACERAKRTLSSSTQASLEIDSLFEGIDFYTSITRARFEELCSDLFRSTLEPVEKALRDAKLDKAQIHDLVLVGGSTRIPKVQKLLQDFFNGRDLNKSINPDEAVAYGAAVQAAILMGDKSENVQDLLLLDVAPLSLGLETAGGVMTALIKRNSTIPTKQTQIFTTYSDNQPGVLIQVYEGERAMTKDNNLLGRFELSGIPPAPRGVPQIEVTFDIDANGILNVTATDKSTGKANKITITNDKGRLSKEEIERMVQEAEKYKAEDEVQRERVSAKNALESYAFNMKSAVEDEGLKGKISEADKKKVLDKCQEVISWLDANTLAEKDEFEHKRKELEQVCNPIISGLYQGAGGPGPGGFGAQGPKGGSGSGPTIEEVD

Which “proteolytic pattern of Hsp70i” value [1] does the source give for `CCCn1c(NC(=O)[C@H]2CCCN(c3cnccn3)C2)nc2ccccc21` [HS-72, (S)—N-(1-propyl-1H-benzo[d]imidazol-2-yl)-1-(pyrazin-2-yl)piperidine-3-carboxamide] here?
The value was “profound difference in the proteolytic pattern”.

And the cell proliferation [2]?
Its cell proliferation is “inhibits proliferation”.

What about the “cell proliferation, combination with HS-10” value [2] of the same compound?
The value was “additive effect”.

What about the “cell proliferation, combination with HS-10” value ([2]; listed as HS72) of the same compound?
Its value is “synergism”.

What about the plasma concentration ([3]; 5 minutes post IP injection, 20 mg/Kg, n=3, SEM) of the same compound?
Its plasma concentration is 70 ± 30 µM.

And the kidney concentration ([3]; 5 minutes, IP 20 mg/Kg, n=3, SEM)?
The kidney concentration was 0.43 ± 0.08 µmol/g.

And the plasma concentration ([3]; 8 hours post IP injection, 20 mg/Kg, n=3, SEM)?
Its plasma concentration is 2 ± 0.2 µM.

What about the liver concentration (peak) ([3]; 8 hours, IP 20 mg/Kg, n=3, SEM) of the same compound?
The liver concentration (peak) was 2.26 ± 0.5 µmol/g.

And the kidney concentration [3, 4]?
Its kidney concentration is 0.02 ± 0.004 µmol/g.

What about the liver concentration [3, 4] of the same compound?
The liver concentration was 0.51 ± 0.11 µmol/g.

And the “plasma [HS-72] maintained” value ([3]; for at least 8 hours)?
Its value is over 20 µM.

And the concentration at 24 hours ([3]; mouse, plasma, 24 hours post IP injection, 20 mg/Kg, read-out: plasma concentration, trace amounts)?
Its concentration at 24 hours is under 10 µM.

What about the half-life ([3]; mouse, plasma, IP 20 mg/Kg, n=3, SEM, read-out: T1/2 elimination from plasma (converted)) of the same compound?
The half-life was 24 ± 6 min.

What about the “metabolism in plasma, kidney and liver” value ([3]; parent MS ion of 365.2 Da detected intact) of the same compound?
The value was “no evidence of rapid metabolism”.
